Experimental findings from PubChem BioAssay AID1996 are described below.

≈ marks a conversion by molar mass, not a printed value.

For the data set the following is noted: buffer; pH 7.4; 200.0 µM.
Regarding `CCOc1ccc2oc(-c3ccccc3)c(C(N)=O)c2c1`, the solubility (kinetic) (as a rule, solubility judged after dilution from a stock solution rather than from solid) was less than 0.6 µg/mL.

As to `O=C(COC(=O)c1cc(-c2ccccc2)nc2ccccc12)NC1CC1`, the kinetic solubility worked out at 6.6 µg/mL (≈ 19.1 µM).

`C/C(=N/NC(=O)CNC(=O)c1ccco1)c1ccco1` displayed a kinetic solubility greater than 41.3 µg/mL.

`CCOc1ccc2oc(C(=O)Nc3nccs3)c(C)c2c1` returned a kinetic solubility of 2.2 µg/mL (≈ 7.28 µM).

On to `O=S(=O)(Nc1ccon1)c1cc(Cl)ccc1Cl`, for which the kinetic solubility was found to be 43.3 µg/mL (≈ 148 µM).

Regarding `O=C1CSC(c2ccncc2)N1Cc1ccc(F)cc1` (configuration not stated), the solubility (kinetic) is greater than 43.3 µg/mL.

The compound `CC(=O)N1CCN(C(=O)c2cc(C)nc3ccccc23)CC1` returned a kinetic solubility of 33.7 µg/mL (≈ 113 µM).

`CC(NC(=O)CN1CCN(c2cccc(Cl)c2)CC1)c1ccccc1` (configuration not stated): the kinetic solubility worked out at 42.4 µg/mL (≈ 118 µM). This solubility kinetic and that of the compound before are within 1.5-fold of each other.

The compound `CNC(=S)Nc1cccc(C(=O)O)c1` had a kinetic solubility greater than 31.5 µg/mL.

The compound `Cc1cccc(NC(=O)c2ccc3c(c2)OCCO3)n1` displayed a kinetic solubility of 32.8 µg/mL (≈ 121 µM).

In the case of `CCS(=O)CC(=O)Nc1c(-c2ccccc2)oc2ccccc2c1=O` (configuration not stated), the kinetic solubility came to 44.8 µg/mL (≈ 126 µM).

As for `O=[N+]([O-])C1C(c2ccccc2)=NOC1c1ccccc1O` (configuration not stated), the kinetic solubility is greater than 42.6 µg/mL.

In turn, `O=C(COC(=O)c1cccnc1Cl)NC(=O)NC1CCCCC1` returned a kinetic solubility greater than 51 µg/mL.

For `CCN1CCN(c2oc(/C=C/c3ccccc3)nc2C#N)CC1`, the kinetic solubility was 42.4 µg/mL (≈ 137 µM).

Consider `O=C(CNC(=O)c1ccc2c(c1)OCO2)NCCOc1ccc(Cl)cc1`, for which the solubility (kinetic) worked out at 13.7 µg/mL (≈ 36.4 µM).

With `CCNC(=O)NC1c2ccccc2CSc2ccccc21.O` (configuration not stated), the kinetic solubility worked out at 8.8 µg/mL.

Take `NS(=O)(=O)c1ccc(CNC(=S)NC(=O)c2ccco2)cc1`: the kinetic solubility was greater than 50.9 µg/mL.

In turn, `CCOC(=O)c1c(C=O)c2ccccc2n1Cc1ccccc1` showed a solubility (kinetic) of less than 0.7 µg/mL.

As for `CC1CCCN(c2nc3nonc3nc2Nc2ccccc2F)C1` (configuration not stated), the solubility (kinetic) worked out at 0.8 µg/mL (≈ 2.44 µM).

As to `COc1ccccc1NC(=S)N(Cc1cccs1)C1CCCC1`, the solubility (kinetic) was 6 µg/mL (≈ 17.3 µM). This solubility kinetic is about 7.5-fold higher than that of the compound before.

`CC(C)OC(=O)NCCOC(=O)Nc1ccccc1Cl` registered a solubility (kinetic) greater than 45.1 µg/mL.

Turning to `O=C(O)C1C2CCC(O2)C1C(=O)Nc1cccc(Cl)c1` (configuration not stated), the solubility (kinetic) was found to be 40.6 µg/mL (≈ 137 µM).

`O=C(/C=C/c1ccc(-c2cccc([N+](=O)[O-])c2)o1)N1CCOCC1`: the kinetic solubility is 3.9 µg/mL (≈ 11.9 µM).

As to `O=C(COC(=O)/C=C/c1ccccc1)NCCc1ccc(F)cc1`, the solubility (kinetic) stood at 3.5 µg/mL (≈ 10.7 µM).

The compound `O=C(NCCNC(=O)c1ccccc1)c1ccccc1` returned a solubility (kinetic) greater than 40.2 µg/mL.

Compound `C[N+](C)(C)CCOP(=O)([O-])OP(=O)([O-])OC[C@H]1O[C@@H](n2ccc(N)nc2=O)[C@H](O)[C@@H]1O.[Na+]` gave a solubility (kinetic) of 3.7 µg/mL.

As for `O=c1[nH]c(Sc2ccc([N+](=O)[O-])cc2[N+](=O)[O-])nc2ccccc12`, the kinetic solubility came out at 26.3 µg/mL (≈ 76.4 µM).

With `O=C(Nc1ccc(F)cc1)Nc1ccc2c(c1)CCC2`, the kinetic solubility was less than 0.3 µg/mL.

Turning to `COc1cccc(CNc2ccc(N3CCCCC3)cc2)c1OC`, the solubility (kinetic) is 39.5 µg/mL (≈ 121 µM).

On to `Cc1ccccc1C(=O)NC(=S)N(CCO)Cc1ccccc1`, for which the solubility (kinetic) was greater than 49.3 µg/mL.

`CC(=O)Nc1ccccc1C(=O)OCC(=O)Nc1ncccn1` had a solubility (kinetic) greater than 47.1 µg/mL.

The compound `CC1CCCC(C)N1C(=O)COC(=O)c1ccccc1O` (configuration not stated) registered a kinetic solubility of 42.3 µg/mL (≈ 145 µM).

For the compound `CCC(=NCc1cccnc1)c1c(O)n(-c2ccccc2C)c(=O)[nH]c1=O`, the kinetic solubility is greater than 54.7 µg/mL.

For `COc1cccc(OCCNS(=O)(=O)c2cccc([N+](=O)[O-])c2)c1`, the solubility (kinetic) stood at 46.6 µg/mL (≈ 132 µM).

For the compound `CCCOc1ccc(C(=O)OCCN2CCCCC2)c(O)c1.Cl`, the kinetic solubility is 49.8 µg/mL.

As to `O=S(=O)(c1ccc(Br)cc1)N1CCCC1`, the kinetic solubility was found to be 41.5 µg/mL (≈ 143 µM).

`COc1cc(OC)c(NC(=O)N2CCOCC2)cc1Cl` displayed a solubility (kinetic) greater than 45.1 µg/mL.

In turn, `CCN(CC(=O)Nc1c(F)cccc1F)C(=O)c1ccc(=O)[nH]c1` showed a kinetic solubility greater than 50.3 µg/mL.

`Cc1c(-c2csc(N)n2)c2ccccc2n1C` showed a kinetic solubility of 30.4 µg/mL (≈ 125 µM).

`COc1ccc(Nc2ncnc3sccc23)c(OC)c1` gave a kinetic solubility of 25.1 µg/mL (≈ 87.4 µM).

`O=S(=O)(CCN1CCCCC1)Oc1ccc(Cl)cc1Cl` displayed a solubility (kinetic) of 50.5 µg/mL (≈ 149 µM).

Take `COc1ccc(CCNC(=O)COC(=O)/C=C/c2cc(OC)ccc2OC)cc1`: the solubility (kinetic) is 5.3 µg/mL (≈ 13.3 µM). This solubility kinetic is about 9.5-fold lower than that of the compound before.

In the case of `COc1ccc2cc[nH]c2c1`, the solubility (kinetic) was 15.3 µg/mL (≈ 104 µM).

On to `Cc1ccc(C(=O)OCC(=O)NCCc2ccc(F)cc2)cc1S(=O)(=O)N1CCOCC1`, for which the solubility (kinetic) came out at 57.2 µg/mL (≈ 123 µM).

Regarding `CC1CCN(Cc2nc(-c3ccc(Cl)cc3)no2)CC1`, the kinetic solubility is 2.2 µg/mL (≈ 7.54 µM).

In the case of `COC(=O)C1(C(C[N+](=O)[O-])c2ccco2)C(=O)NCC1c1ccccc1` (configuration not stated), the solubility (kinetic) was 11.1 µg/mL (≈ 31 µM). This solubility kinetic is about 5-fold higher than that of the compound before.

As for `Cc1nc(SCC(=O)NCC2CCCO2)c2c(C)c(C)sc2n1` (configuration not stated), the solubility (kinetic) was greater than 52.7 µg/mL.

Turning to `CC(C)c1ccc(CN2C(=O)NC3(CCCCCC3)C2=O)cc1`, the solubility (kinetic) was less than 0.3 µg/mL.

Turning to `O=C(CCC(=O)NCc1ccccc1)NCc1ccccc1`, the solubility (kinetic) turned out to be 12.7 µg/mL (≈ 42.9 µM).

Compound `CC1CCc2[nH]c3ccc(C(=O)NCCCOC(C)C)cc3c2C1` (configuration not stated) showed a solubility (kinetic) greater than 49.3 µg/mL.

`O=C(Nc1cccnc1)c1ccc(C(=O)Nc2cccnc2)cc1` registered a solubility (kinetic) of 0.8 µg/mL (≈ 2.51 µM).

Consider `CC1CN(C2=CC(=O)CCC2)CC(C)O1` (configuration not stated), for which the solubility (kinetic) was greater than 31.4 µg/mL.
